Test results from patent EP0565593B1, “REDUCING PESTICIDAL INTERACTIONS IN CROPS” (priority 1990, dated 1992).
Like-named read-outs stand apart in the source and are kept apart here.

How the values were obtained:
[1] = test system: Corn; test: Greenhouse test Procedure VI: biocide and antidote in furrow, herbicide PPI in cover layer (Examples 43-47, 59-61; Tables 42-46, 58-60); assay type: in vivo; conditions: Example 43; Antidotes 1, 7, 12, 33
Source text: This procedure describes interaction among herbicide, biocide and antidote when the herbicide is incorporated in a soil cover layer and the biocide and the antidote are applied in a soil furrow containing crop seed before emergence of the crop. The soil and seeding depth were described in Procedure IV. A first container was designated as an untreated control, a second container was designated as a herbicide control, a third container was designated as a herbicide + biocide control and a fourth container as a herbicide + biocide + antidote test container. The biocide and antidote were formulated as granules. The biocide was applied to the soil furrows of the third and fourth containers at an application rate of 1.1 mg of active compound per cm of row. The antidote was applied to the soil furrow of the fourth container at an application rate of 0.37 mg of active compound per cm of row. A measured amount of the herbicide dispersed or dissolved in acetone was applied to a measured quantity of soil. The quantity of soil treated with the herbicide was thoroughly mixed to incorporate the herbicide. Samples of this soil were used to cover the seed beds of the second, third and fourth containers. For each test series, the seed bed of the first container was likewise covered by a soil layer not treated with herbicide and without biocide or antidote in the soil furrow.
The containers were then placed on a bench in a greenhouse. Watering was by subirrigation plus overhead irrigation after the plants emerged. All treatments were run in duplicate. Plant response was observed according to Procedure IV. Variations in this procedure will be noted in the examples.
In continuing tests to evaluate the variations of this invention, a series of tests were conducted to determine the efficacy of the above safeners in Examples 39-42 to alleviate corn injury induced by the interaction of various additional commercial sulfonylurea herbicides with COUNTER 15G insecticide. In this example, the tests were conducted according to Procedure VI above. In modifications of that procedure, herbicides were applied to soil samples as acetone/water suspensions, incorporated by shaking in a closed container, with subsamples used to cover furrow-treated 10.2 cm pots. Pots were subirrigated followed by overhead misting on days 6-10.
This example was designed to test the safening effect of those above safeners used in this test series to relieve corn injury by negative synergism induced by interaction of COUNTER 15G and three imidazolinone herbicides, i.e., imazaquin and imazapyr (used in the POE tests in Example 41) and AC 263222 (a.i. in CADRE® herbicide). As differing from the tests in Example 41, this test was a PPI test according to Procedure VI described above. Observation of test results (Table 43) were taken thirteen 913) days after in-furrow PPI preparation.
This example describes PPI tests to evaluate said test safeners in this series with analogs of the sulfonamide herbicides tested under POE herbicide application procedures described in Example 42. In these tests, conducted according to Procedure VI described above, Herbicide Nos. 20, 22 and 24 were applied PPI with the insecticide and antidote. Observations of tests results were made thirteen days after PPI initiation.
An additional three (3) sulfonamide herbicide analogs were tested simultaneously and under the same conditions described in Example 45.
Another test of this invention involved the safening effects of the safeners in this series against negative synergy inducted by the interaction of COUNTER 15G and a sulfonylurea herbicide (OUST®), Herbicide No. 13, and PURSUIT, an imidazolinone herbicide, No. 6. Test conditions were the same as those in Examples 43-46. Other procedures for applying herbicidal formulations are as described in Example 42. […]

[2] = test system: SJCA; test: Greenhouse test Procedure IV: herbicide, biocide and antidote PPI, weed SJCA (Examples 53-55; Tables 52-54); assay type: in vivo
Source text: The test in this example paralleled that in Example 51, except the procedure was according to Procedure IV above and the herbicides used were No. 1 (MON-12000); No. 21 (XRD-498) and, again, No. 18 (PURSUIT); the biocide was, again, MOCAP®. Observations were taken thirteen (13) days after PPI treatment with biocide and antidote.
This test was identical to that in Example 52, except for use of a different biocide, DIAZINON (Biocide No. 5, a nematicide and soil insecticide).
This test was also identical to that in the preceding two examples, except that the biocide was malathion (No. 7, an insecticide).
This test was identical to the preceding ones, except the biocide was DPX-43898 (No. 6, active ingredient in FORTRESS® insecticide, a soil insecticide). Also, the observation time was fourteen (14) days after PPI initiation.

[3] = test system: Velvetleaf (VELE); test: whole plant or invertebrate; assay type: in vivo, Abutilon theophrasti
[4] = test system: Corn
[5] = test system: Corn; test: Greenhouse test Procedure II: herbicide, insecticide and antidote incorporated in cover layer (Example 4; Table 4); assay type: in vivo; conditions: 3 weeks
Experimental: (§1) Containers were filled and compacted with a fumigated silt loam top soil to a depth of about 1.3 cm from the top of the container. A first container was designated as an untreated control, a second container was designated as a herbicide control, and a third container was designated as a herbicide + antidote test container. Each of the containers was seeded with a crop species. A measured amount of herbicide dispersed or dissolved in acetone was applied to a measured quantity of soil. To this same quantity of soil treated with herbicide, there was added a measured amount of antidote dispersed or dissolved in acetone. The quantity of soil treated with the herbicide and antidote was thoroughly mixed to incorporate the herbicide and antidote in the soil uniformly. The seed bed in the third container of soil was covered with the soil treated with the herbicide and antidote and the container was leveled. For each test series, the seed beds of the first and second containers were likewise covered by soil layers. the cover layer of the first container was not treated with herbicide or antidote.
(§2) This procedure is the same as Procedure I, but modified in the manner that after incorporation of the chemicals (herbicide, antidote and insecticide), the containers with the covered seedbed were treated with an initial overhead irrigation equivalent to 0.6 cm rainfall, then subsequently sub-irrigated as required on greenhouse benches.
(§3) The procedure used in this test was Procedure No. 2 above. Formulations of herbicide, insecticide and antidote were applied via track sprayer sequentially onto cover layers, incorporated into the soil which was spread over seedbeds, then irrigated from above with 0.6 cm water. Observations were made three (3) weeks after treatment.

[6] = test system: VELE (velvetleaf); test: Greenhouse test Procedure II (Example 4; Table 4); assay type: in vivo, Abutilon theophrasti; conditions: 3 weeks
Experimental: as §1, §2, §3

[7] = test system: velvetleaf (Abutilon theophrasti); test: Greenhouse test, combination of Procedures II and III (Examples 1, 2; Tables 1, 2); assay type: in vivo; conditions: 3 weeks
[8] = test system: Corn; test: Greenhouse test, combination of Procedures II and III: insecticide in-furrow or in cover layer, herbicide and antidote incorporated in cover layer (Examples 1-3, 6; Tables 1-3, 6); assay type: in vivo; conditions: for % Injury Corn: 3 weeks
[9] = Table 53, Biocide No. 7 alone 8.96 kg/Ha PPI, observed 13 days after treatment
[10] = Table 54, Biocide No. 6 alone 8.96 kg/Ha PPI, observed 14 days after PPI initiation
[11] = Insecticide 2 3.36 + Herbicide 4 0.07 kg/Ha
[12] = Insecticide 2 3.36 + Herbicide 4 0.14 kg/Ha
[13] = Insecticide 2 3.36 + Herbicide 5 0.07 kg/Ha
[14] = Insecticide 2 3.36 + Herbicide 5 0.14 kg/Ha
[15] = Insecticide 2 3.36 + Herbicide 6 0.07 kg/Ha
[16] = Insecticide 2 3.36 + Herbicide 6 0.14 kg/Ha
[17] = Ex. 2: Insecticide 1 (0.23 Kg/Ha) + Herbicide 9 2.24 Kg/Ha
[18] = Ex. 2: Insecticide 2 3.36 Kg/Ha + Herbicide 9 2.24 Kg/Ha
[19] = Table 52, Biocide No. 5 alone 8.96 kg/Ha PPI, observed 13 days after treatment

Compound: COC(=O)c1ccccc1CS(=O)(=O)NC(=O)Nc1nc(OC)cc(OC)n1 [Herbicide No. 14, Benzoic acid, 2-[[[[[(4,6-dimethoxy-2-pyrimidinyl)amino]carbonyl]amino]sulfonyl]methyl]-, methyl ester, reference compound]
- safening of herbicide/COUNTER 15G corn injury by the antidotes [1]: effectively reduced corn injury

Compound: COc1nc(C)nc(NC(=O)NS(=O)(=O)c2ccccc2Cl)n1 [Herbicide No. 12, Benzenesulfonamide, 2-chloro-N-[[(4-methoxy-6-methyl-1,3,5-triazin-2-yl)amino]carbonyl]-, reference compound]
- safening of herbicide/COUNTER 15G corn injury by the antidotes [1]: effectively reduced corn injury

Compound: CCOC(=O)CC(SP(=S)(OC)OC)C(=O)OCC (stereo not drawn) [Biocide No. 7, O,O-Dimethyl phosphorothioate of diethyl mercaptosuccinate, reference compound]
- % Inhibition SJCA [2, 9]: 0%
- % Inhibition VELE [3, 9]: 0%
- % Inhibition Corn [4, 9]: 0%

Compound: CCOP(=S)(OCC)OC(Cl)C(Cl)(Cl)Cl (stereo not drawn) [Biocide No. 6, O,O-Diethyl-O-1,2,2,2-tetrachloroethyl phosphorothioate, reference compound]
- % Inhibition SJCA [2, 10]: 0%
- % Inhibition VELE [3, 10]: 0%
- % Inhibition Corn [4, 10]: 0%

Compound: 2-Thiophenecarboxylic acid, 3-[[[[(4,6-dimethoxy-1,3,5-triazin-2-yl)amino]carbonyl]amino]sulfonyl]-, methyl ester [Herbicide No. 4]
- % Injury Corn ([5]; Herbicide 4 0.07 kg/Ha): 15%
- % Injury Corn ([5]; Herbicide 4 0.14 kg/Ha): 38%
- % Injury Corn [5, 11]: 83%
- % Injury Corn [5, 12]: 80%
- % Injury VELE ([6]; Herbicide 4 0.07 kg/Ha): 10%
- % Injury VELE ([6]; Herbicide 4 0.14 kg/Ha): 52%
- % Injury VELE [6, 11]: 55%
- % Injury VELE [6, 12]: 5%

Compound: COc1nc(C)nc(NC(=O)NS(=O)(=O)c2ccccc2OCCCl)n1 [Herbicide No. 11, Benzenesulfonamide, 2-(2-chloroethoxy)-N-[[(4-methoxy-6-methyl-1,3,5-triazin-2-yl)amino]carbonyl]-, reference compound]
- safening of herbicide/COUNTER 15G corn injury by the antidotes [1]: effectively reduced corn injury

Compound: CCOC(=O)c1ccccc1S(=O)(=O)NC(=O)Nc1nc(Cl)cc(OC)n1 [Herbicide No. 5, Benzoic acid, 2-[[[[(4-chloro-6-methoxy-2-pyrimidin-2-yl)amino]carbonyl]amino]sulfonyl]ethyl ester]
- % Injury Corn ([5]; Herbicide 5 0.07 kg/Ha): 88%
- % Injury Corn ([5]; Herbicide 5 0.14 kg/Ha): 92%
- % Injury Corn [5, 13]: 95%
- % Injury Corn [5, 14]: 98%
- % Injury VELE ([6]; Herbicide 5 0.07 kg/Ha): 57%
- % Injury VELE ([6]; Herbicide 5 0.14 kg/Ha): 77%
- % Injury VELE [6, 13]: 83%
- % Injury VELE [6, 14]: 70%

Compound: CCc1cnc(C2=NC(C)(C(C)C)C(=O)N2)c(C(=O)O)c1 (stereo not drawn) [Herbicide No. 6, 3-Pyridinecarboxylic acid, 2-[4,5-dihydro-4-methyl-4-(1-methylethyl)-5-oxo-1H-imidazol-2-yl]5-ethyl]
- % Injury Corn ([5]; Herbicide 6 0.07 kg/Ha): 2%
- % Injury Corn ([5]; Herbicide 6 0.14 kg/Ha): 23%
- % Injury Corn [5, 15]: 65%
- % Injury Corn [5, 16]: 43%
- % Injury VELE ([6]; Herbicide 6 0.07 kg/Ha): 33%
- % Injury VELE ([6]; Herbicide 6 0.14 kg/Ha): 32%
- % Injury VELE [6, 15]: 30%
- % Injury VELE [6, 16]: 20%

Compound: CCNc1nc(Cl)nc(NC(C)C)n1 [Herbicide No. 9, 2-Chloro-4-(ethylamino)-6-(isopropylamino)-S-triazine, reference compound]
- % Injury VELE [7, 17]: 88%
- % Injury VELE [7, 18]: 30%
- % Injury Corn [8, 17]: 3%
- % Injury Corn [8, 18]: 0%
- injury to corn ([8]; Ex. 2: combination of the insecticides (Nos. 1, 2) with atrazine): did not appear to be any significant injury
- % Injury Corn ([8]; Ex. 3: Herbicide 9 2.24 Kg/Ha): 0%
- % Injury Corn ([8]; Ex. 3: Insecticide 3 (227 g) + Herbicide 9 2.24 Kg/Ha): 0%
- % Injury Corn ([8]; Ex. 3: Insecticide 4 (227 g) + Herbicide 9 2.24 Kg/Ha): 0%

Compound: CCOP(=S)(OCC)Oc1cc(C)nc(C(C)C)n1 [Biocide No. 5, O,O-Diethyl (-(2-isopropyl-4-methyl-6-pyrimidinyl phosphorothioate, reference compound]
- % Inhibition SJCA [2, 19]: 50%
- % Inhibition VELE [3, 19]: 25%
- % Inhibition Corn [4, 19]: 0%

Compound: COC(=O)c1ccccc1S(=O)(=O)NC(=O)Nc1nc(C)cc(C)n1 [Herbicide No. 13, reference compound]
- safening of herbicide/COUNTER 15G corn injury by the antidotes [1]: limited to nil
